Drawing on patent US6358983B1, “Heterocyclically substituted α-hydroxycarboxylic acid derivatives, method for producing the same and their use as endothelin receptor antagonists” (Abbott Laboratories, priority 1997, dated 2002), this text covers Ki for six compounds.

One assay addresses T1, human ETA receptor (Homo sapiens, UniProt P25101).
T1 construct: expressed in transfected cells; host or cells: CHO cells (membrane preparation)
T1 sequence (P25101 21-427): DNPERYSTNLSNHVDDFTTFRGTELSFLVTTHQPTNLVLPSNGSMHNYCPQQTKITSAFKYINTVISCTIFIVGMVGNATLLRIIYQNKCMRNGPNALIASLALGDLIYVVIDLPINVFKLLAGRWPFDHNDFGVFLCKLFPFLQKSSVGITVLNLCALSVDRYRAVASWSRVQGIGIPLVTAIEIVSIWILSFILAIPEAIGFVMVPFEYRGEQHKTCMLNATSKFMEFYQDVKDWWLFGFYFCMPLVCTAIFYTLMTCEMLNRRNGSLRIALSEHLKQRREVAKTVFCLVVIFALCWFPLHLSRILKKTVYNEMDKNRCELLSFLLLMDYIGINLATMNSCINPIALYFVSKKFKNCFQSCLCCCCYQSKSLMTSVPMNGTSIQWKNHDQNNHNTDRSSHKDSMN
Nature of the assay: ETA receptor binding test ([125I]-ET1, CHO cell membranes). The following applies: cloned human ETA receptor, 25 pM [125I]-ET1, 25° C., 30 min. On the procedure: (§1) For binding studies, cloned human ETA or ETB receptor-expressing CHO cells were employed.
(§2) The ETA or ETB receptor-expressing CHO cells were proliferated in DMEM NUT MIX F12 medium (Gibco, No. 21331-020) using 10% fetal calf serum (PAA Laboratories GmbH, Linz, No. A15-022), 1 mM glutamine (Gibco No. 25030-024), 100 U/ml of penicillin and 100 μg/ml of streptomycin (Gibco, Sigma No P-0781). After 48 hours, the cells were washed with PBS and incubated at 37° C. for 5 minutes with 0.05% trypsin-containing PBS. Neutralization with medium was then carried out and the cells were collected by centrifugation at 300×g.
(§3) For the membrane preparation, the cells were adjusted to a concentration of 10^8 cells/ml of buffer (50 mM tris·HCL buffer, pH 7.4) and then disintegrated by means of ultrasound Branson Sonifier 250, 40-70 seconds/constant/output [sic] 20).
(§4) For the ETA and ETB receptor binding test, the membranes were suspended in incubation buffer (50 mM tris HCl, pH 7.4 with 5 mM MnCl2, […] of bacitracin and 0.2% BSA) in a concentration of 50 μg of protein per test batch and incubated at 25° C. with 25 pM [125I]-ET1 (ETA receptor test) or 25 pM [125I]-ET3 (ETB receptor test) in the presence or absence of test substance. The nonspecific binding was determined with 10^−7 M ET1. After 30 min, the free and the bound -radioligand were separated by filtration through GF/B glass fiber filters (Whatman, England) on a Skatron cell collector (Skatron, Lier, Norway) and the filters were washed with ice-cold tris HCl buffer, pH 7.4 with 0.2% BSA.
(§5) The radioactivity collected on the filters was quantified using a Packard 2200 CA liquid scintillation counter.
(§6) According to the binding test described above, receptor binding data were measured for the compounds shown below.

Another assay has as its target T2, human ETB receptor (Homo sapiens, UniProt P24530).
T2 construct: expressed in transfected cells; host or cells: CHO cells (membrane preparation)
T2 sequence (P24530 27-442): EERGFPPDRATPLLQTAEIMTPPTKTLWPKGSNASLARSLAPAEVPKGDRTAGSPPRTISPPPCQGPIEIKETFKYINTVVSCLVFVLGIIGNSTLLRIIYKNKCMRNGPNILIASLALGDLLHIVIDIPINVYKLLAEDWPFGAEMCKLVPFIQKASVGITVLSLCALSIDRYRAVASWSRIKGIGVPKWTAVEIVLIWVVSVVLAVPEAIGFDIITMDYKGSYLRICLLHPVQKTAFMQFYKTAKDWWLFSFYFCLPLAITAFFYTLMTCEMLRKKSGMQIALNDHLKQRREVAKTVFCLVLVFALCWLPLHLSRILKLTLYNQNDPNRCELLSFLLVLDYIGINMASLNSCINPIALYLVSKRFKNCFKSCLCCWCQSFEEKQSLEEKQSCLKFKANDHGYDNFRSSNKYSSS
Description: ETB receptor binding test ([125I]-ET3, CHO cell membranes). Particulars: cloned human ETB receptor, 25 pM [125I]-ET3, 25° C., 30 min. As for the experimental part: as §1, §2, §3, §4, §5, §6

The term Ki denotes the dissociation constant of the complex between target and ligand, obtained from inhibition or displacement. The low end stands for a stronger hold on the target, the high end for a looser hold on the target. On to `COC(c1ccccc1)(c1ccccc1)[C@H](Oc1nc(C)c(C)s1)C(=O)O` [Compound I-1, (S)-2-(4,5-Dimethylthiazol-2-yloxy)-3-methoxy-3,3-diphenyl-propionic Acid], for which the inhibition constant Ki on human ETA receptor is 0.013 µM; at human ETB receptor, 0.65 µM.
For `COC(c1ccccc1)(c1ccccc1)[C@H](Oc1nc(C)c(C)o1)C(=O)O` [Compound I-4, (S)-2-(4,5-Dimethyloxazol-2-yloxy)-3-methoxy-3,3-diphenyl-propionic Acid] the same measures were 0.029 µM and 3.1 µM.
Take `COC(c1ccccc1)(c1ccccc1)[C@H](Oc1nc2c(s1)CCC2)C(=O)O` [Compound I-5, (S)-2-(4,5-Cyclopentenothiazol-2-yloxy)-3-methoxy-3,3-diphenyl-propionic Acid]: the Ki on human ETA receptor was 0.05 µM; on human ETB receptor, above 0.7 µM.
`COC(c1ccccc1)(c1ccccc1)[C@H](Oc1nc2ccccc2s1)C(=O)O` [Compound I-6, (S)-2-(Benzothiazol-2-yloxy)-3-methoxy-3,3-diphenylpropionic Acid]: the values for the Ki at human ETA receptor and at human ETB receptor were 0.9 µM and above 7.1 µM, respectively.
For `COc1ccc(CCOC(c2ccccc2)(c2ccccc2)C(Oc2nc(C)c(C)s2)C(=O)O)cc1OC` (stereo not drawn) [Compound I-13, 2-(4,5-Dimethylthiazol-2-yloxy)-3-(2-(3,4-dimethoxyphenyl)-ethoxy)-3,3-diphenylpropionic Acid] the same measures were 0.145 µM and 0.21 µM.
For `COc1ccc(CCOC(c2ccccc2)(c2ccccc2)C(Oc2nc(C)c(C)o2)C(=O)O)cc1OC` (stereo not drawn) [Compound I-15, 2-(4,5-Dimethyloxazol-2-yloxy)-3-(2-(3,4-dimethoxyphenyl)-ethoxy)-3,3-diphenylpropionic Acid] the same measures were 0.215 µM and 0.485 µM.
